Laboratory results: paper PMC8708751, “Hit Identification of a Novel Quinazoline Sulfonamide as a Promising EphB3 Inhibitor: Design, Virtual Combinatorial Library, Synthesis, Biological Evaluation, and Docking Simulation Studies” (Pharmaceuticals, 2021)

Molecular target: T1, EphB4 (Homo sapiens, UniProt P54760)
T1 construct: purchased Reaction Biology Co. (Kinase HotSpot service)
T1 sequence (P54760 16-987): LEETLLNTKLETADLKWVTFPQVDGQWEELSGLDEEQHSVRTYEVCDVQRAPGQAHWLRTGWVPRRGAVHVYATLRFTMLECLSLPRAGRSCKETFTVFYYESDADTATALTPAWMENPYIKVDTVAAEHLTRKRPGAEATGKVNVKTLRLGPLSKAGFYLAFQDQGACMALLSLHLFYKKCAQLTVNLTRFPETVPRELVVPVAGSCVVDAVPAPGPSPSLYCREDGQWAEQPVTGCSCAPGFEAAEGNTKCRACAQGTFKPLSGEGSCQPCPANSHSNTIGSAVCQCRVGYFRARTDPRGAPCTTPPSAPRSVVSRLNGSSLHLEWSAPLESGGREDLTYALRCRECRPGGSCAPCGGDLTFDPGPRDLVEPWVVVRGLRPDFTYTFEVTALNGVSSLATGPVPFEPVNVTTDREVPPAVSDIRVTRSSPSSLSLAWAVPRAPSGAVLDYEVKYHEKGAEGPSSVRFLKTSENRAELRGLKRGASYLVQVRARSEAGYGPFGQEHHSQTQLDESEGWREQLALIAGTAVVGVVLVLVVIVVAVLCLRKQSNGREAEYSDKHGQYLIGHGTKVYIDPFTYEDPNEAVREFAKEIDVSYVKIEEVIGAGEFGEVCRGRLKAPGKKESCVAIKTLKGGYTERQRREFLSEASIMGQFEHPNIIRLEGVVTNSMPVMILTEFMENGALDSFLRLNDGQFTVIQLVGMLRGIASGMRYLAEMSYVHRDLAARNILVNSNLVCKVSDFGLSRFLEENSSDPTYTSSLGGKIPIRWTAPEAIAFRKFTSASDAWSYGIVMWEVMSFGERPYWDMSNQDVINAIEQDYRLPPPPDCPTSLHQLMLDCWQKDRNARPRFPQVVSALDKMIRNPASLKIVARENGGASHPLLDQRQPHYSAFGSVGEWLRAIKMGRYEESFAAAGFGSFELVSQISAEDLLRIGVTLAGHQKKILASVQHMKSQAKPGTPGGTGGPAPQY
Assay: Kinase panel assay, EphB4
Format: biochemical
Method: The HotSpot assay platform contains specific kinase/substrate pairs along with required cofactors. Base reaction buffer: 20 mM Hepes (pH 7.5), 10 mM MgCl2, 1 mM EGTA, 0.02% Brij35, 0.02 mg/mL BSA, 0.1 mM Na3VO4, 2 mM DTT, 1% DMSO. The tested compounds were dissolved in 100% DMSO to specific concentration. The serial dilution was conducted by Integra Viaflo Assist in DMSO (Sigma-Aldrich, Burlington, MA, USA). The reaction mixture containing the examined compound and 33P-ATP was incubated at room temperature for 2 h, and radioactivity was detected by filter-binding method. Kinase activity data were expressed as the percent remaining kinase activity in test samples compared to vehicle (dimethyl sulfoxide) reactions. IC50 values and curve fits were obtained using Prism (GraphPad Software, San Diego, CA, USA).

inhibition at 10 µM (EphB4, 10 µM, read-out: Average % Enzyme Inhibition (Relative to DMSO Controls) at 10 µM): 70.2 ± 3.64% | IC50 (EphB4, dose-dependent assay): 3.98 µM
SMILES: NS(=O)(=O)c1ccc(Nc2ncnc3ccc(-c4cccc(O)c4)cc23)cc1 [Compound 4c, 4-((6-(3-Hydroxyphenyl)quinazolin-4-yl)amino)benzenesulfonamide]
